Experiments:
[1] = Inhibition of Hepatitis C virus genotype 1a H77 replicon NS5A transfected in human HuH7 cells assessed as decrease in replication of viral replicon after 4 days by luciferase reporter gene assay; format: cell-based, Hepatitis C virus (isolate H77); conditions: Huh-7, 96 h
[2] = Inhibition of Hepatitis C virus genotype 4a replicon NS5A transfected in human HuH7 cells assessed as decrease in replication of viral replicon after 4 days by luciferase reporter gene assay; format: cell-based, Hepatitis C virus subtype 4a; conditions: Huh-7, 96 h
[3] = test system: Hepatitis C virus (isolate H77); assay: Ratio of EC50 for Hepatitis C virus genotype 1a H77 replicon NS5A in presence of 40% human plasma to EC50 for Hepatitis C virus genotype 1a H77 replicon NS5A in absence of 40% human plasma
[4] = test system: Hepatitis C virus (isolate H77); assay: Resistance ratio of EC50 for Hepatitis C virus genotype 1a H77 replicon NS5A Q30R mutant to EC50 for Hepatitis C virus genotype 1a H77 replicon NS5A
[5] = Inhibition of Hepatitis C virus genotype 1b Con1 replicon NS5A transfected in human HuH7 cells assessed as decrease in replication of viral replicon in presence of 40% human plasma after 4 days by luciferase reporter gene assay; format: cell-based, Hepatitis C virus (isolate Con1); conditions: Huh-7, Plasma, 96 h
[6] = test system: Hepatitis C virus (isolate Con1); assay: Ratio of EC50 for Hepatitis C virus genotype 1b Con1 replicon NS5A in presence of 40% human plasma to EC50 for Hepatitis C virus genotype 1b Con1 replicon NS5A in absence of 40% human plasma
[7] = test system: Hepatitis C virus (isolate H77); assay: Resistance ratio of EC50 for Hepatitis C virus genotype 1a H77 replicon NS5A M28T mutant to EC50 for Hepatitis C virus genotype 1a H77 replicon NS5A
[8] = Inhibition of Hepatitis C virus genotype 1b Con1 replicon NS5A transfected in human HuH7 cells assessed as decrease in replication of viral replicon after 4 days by luciferase reporter gene assay; format: cell-based, Hepatitis C virus (isolate Con1); conditions: Huh-7, 96 h
[9] = Inhibition of Hepatitis C virus genotype 2b replicon NS5A transfected in human HuH7 cells assessed as decrease in replication of viral replicon after 4 days by luciferase reporter gene assay; format: cell-based, Hepatitis C virus subtype 2b; conditions: Huh-7, 96 h
[10] = test system: Hepatitis C virus (isolate H77); assay: Resistance ratio of EC50 for Hepatitis C virus genotype 1a H77 replicon NS5A Y93C mutant to EC50 for Hepatitis C virus genotype 1a H77 replicon NS5A
[11] = Inhibition of Hepatitis C virus genotype 1a H77 replicon NS5A transfected in human HuH7 cells assessed as decrease in replication of viral replicon in presence of 40% human plasma after 4 days by luciferase reporter gene assay; format: cell-based, Hepatitis C virus (isolate H77); conditions: Huh-7, Plasma, 96 h
[12] = test system: Hepatitis C virus (isolate H77); assay: Resistance ratio of EC50 for Hepatitis C virus genotype 1a H77 replicon NS5A Y93H mutant to EC50 for Hepatitis C virus genotype 1a H77 replicon NS5A
[13] = Inhibition of Hepatitis C virus genotype 6a replicon NS5A transfected in human HuH7 cells assessed as decrease in replication of viral replicon after 4 days by luciferase reporter gene assay; format: cell-based, Hepatitis C virus subtype 6a; conditions: Huh-7, 96 h
[14] = Inhibition of Hepatitis C virus genotype 3a replicon NS5A transfected in human HuH7 cells assessed as decrease in replication of viral replicon after 4 days by luciferase reporter gene assay; format: cell-based, Hepatitis C virus subtype 3a; conditions: Huh-7, 96 h
[15] = Inhibition of Hepatitis C virus genotype 2a replicon NS5A transfected in human HuH7 cells assessed as decrease in replication of viral replicon after 4 days by luciferase reporter gene assay; format: cell-based, Hepatitis C virus subtype 2a; conditions: Huh-7, 96 h
[16] = Inhibition of Hepatitis C virus genotype 1a H77 replicon NS5A Q30R mutant transfected in human HuH7 cells assessed as decrease in replication of viral replicon after 4 days by luciferase reporter gene assay; format: cell-based, Hepatitis C virus (isolate H77); conditions: Huh-7, 96 h
[17] = Inhibition of Hepatitis C virus genotype 1a H77 replicon NS5A M28T mutant transfected in human HuH7 cells assessed as decrease in replication of viral replicon after 4 days by luciferase reporter gene assay; format: cell-based, Hepatitis C virus (isolate H77); conditions: Huh-7, 96 h
[18] = AUC in CD1 mouse at 30 mg/kg, po after 0.25 to 24 hrs; format: ADME, organism-based; parameters: time lower 0.25 hr, dose 30 mg/kg, time upper 24 hr, route oral; conditions: in vivo
[19] = AUC in beagle dog at 2.5 mg/kg, po administered via gavage after 0.25 to 24 hrs; format: ADME, organism-based, Canis lupus familiaris; parameters: dose 2.5 mg/kg, time 0.25-24 hr, route oral; conditions: in vivo
[20] = Cmax in Sprague-Dawley rat at 3 mg/kg, po administered via gavage after 0.25 to 24 hrs; format: ADME, organism-based; parameters: dose 3 mg/kg, route oral; conditions: in vivo
[21] = Half life in CD1 mouse at 3 mg/kg, po after 0.25 to 24 hrs; format: ADME, organism-based; conditions: in vivo
[22] = AUC in CD1 mouse at 3 mg/kg, po after 0.25 to 24 hrs; format: ADME, organism-based; parameters: time upper 24 hr, dose 3 mg/kg, time lower 0.25 hr, route oral; conditions: in vivo
[23] = Half life in beagle dog at 2.5 mg/kg, po administered via gavage after 0.25 to 24 hrs; format: ADME, organism-based, Canis lupus familiaris; conditions: in vivo
[24] = AUC in Sprague-Dawley rat at 3 mg/kg, po administered via gavage after 0.25 to 24 hrs; format: ADME, organism-based; parameters: time upper 24 hr, dose 3 mg/kg, time lower 0.25 hr, route oral; conditions: in vivo
[25] = Cmax in CD1 mouse at 3 mg/kg, po after 0.25 to 24 hrs; format: ADME, organism-based; parameters: dose 3 mg/kg, route oral; conditions: in vivo
[26] = Half life in Sprague-Dawley rat at 3 mg/kg, po administered via gavage after 0.25 to 24 hrs; format: ADME, organism-based; conditions: in vivo
[27] = Half life in CD1 mouse at 30 mg/kg, po after 0.25 to 24 hrs; format: ADME, organism-based; conditions: in vivo
[28] = Cmax in beagle dog at 2.5 mg/kg, po administered via gavage after 0.25 to 24 hrs; format: ADME, organism-based, Canis lupus familiaris; parameters: dose 2.5 mg/kg, route oral; conditions: in vivo
[29] = Cmax in CD1 mouse at 30 mg/kg, po after 0.25 to 24 hrs; format: ADME, organism-based; parameters: dose 30 mg/kg, route oral; conditions: in vivo
[30] = Plasma clearance in Sprague-Dawley rat at 3 mg/kg, iv administered as bolus dose after 0.1 to 24 hrs; format: ADME, organism-based
[31] = Oral bioavailability in CD1 mouse at 5 mg/kg after 0.25 to 24 hrs; format: ADME, organism-based; conditions: in vivo
[32] = Half life in Sprague-Dawley rat at 3 mg/kg, iv administered as bolus dose after 0.1 to 24 hrs; format: ADME, organism-based; conditions: in vivo
[33] = Oral bioavailability in Sprague-Dawley rat at 3 mg/kg administered via gavage after 0.25 to 24 hrs; format: ADME, organism-based; conditions: in vivo
[34] = Plasma clearance in CD1 mouse at 5 mg/kg, iv after 0.1 to 24 hrs; format: ADME, organism-based
[35] = Half life in CD1 mouse at 5 mg/kg, po after 0.25 to 24 hrs; format: ADME, organism-based; conditions: in vivo
[36] = Half life in CD1 mouse at 5 mg/kg, iv after 0.1 to 24 hrs; format: ADME, organism-based; conditions: in vivo
[37] = AUC in CD1 mouse at 5 mg/kg, po after 0.25 to 24 hrs; format: ADME, organism-based; parameters: time 0.25-24 hr, dose 5 mg/kg, route oral; conditions: in vivo
[38] = Cmax in CD1 mouse at 5 mg/kg, po after 0.25 to 24 hrs; format: ADME, organism-based; parameters: dose 5 mg/kg, route oral; conditions: in vivo
[39] = Half life in CD1 mouse at 3 mg/kg, iv after 0.1 to 24 hrs; format: ADME, organism-based; conditions: in vivo
[40] = Oral bioavailability in CD1 mouse at 3 mg/kg after 0.25 to 24 hrs; format: ADME, organism-based; conditions: in vivo
[41] = Plasma clearance in CD1 mouse at 3 mg/kg, iv after 0.1 to 24 hrs; format: ADME, organism-based
[42] = Half life in CD1 mouse at 15 mg/kg, po after 0.25 to 24 hrs; format: ADME, organism-based; conditions: in vivo
[43] = AUC in CD1 mouse at 15 mg/kg, po after 0.25 to 24 hrs; format: ADME, organism-based; parameters: time lower 0.25 hr, dose 15 mg/kg, time upper 24 hr, route oral; conditions: in vivo
[44] = Cmax in CD1 mouse at 15 mg/kg, po after 0.25 to 24 hrs; format: ADME, organism-based; parameters: dose 15 mg/kg, route oral; conditions: in vivo

SMILES | EC50 [1] [pM] | EC50 [2] [pM] | Ratio EC50 [3] | Ratio EC50 [4] | EC50 [5] [pM] | Ratio EC50 [7] | EC50 [8] [pM] | EC50 [9] [pM] | Ratio EC50 [10] | EC50 [11] [pM] | Ratio EC50 [12] | EC50 [13] [pM] | EC50 [14] [pM] | EC50 [15] [pM] | EC50 [16] [pM] | EC50 [17] [pM] | Cmax [20] [ng/mL] | AUC [22] [ng·h/mL] | AUC [24] [ng·h/mL] | Cmax [25] [ng/mL] | further results
COC(=O)N[C@H](C(=O)N1CCC[C@H]1c1nc2cc([C@H]3CC[C@H](c4cc5nc([C@@H]6CCCN6C(=O)[C@@H](NC(=O)OC)C(C)C)[nH]c5cc4F)N3c3ccc(C(C)(C)C)cc3)c(F)cc2[nH]1)C(C)C | 2 to 8 | 8 | 15 to 30 | 3 | 96 | 2 | 7 | 9 | 3 | 216 | 30 | 15 | 8 | 98 | 5 | 4 |  |  |  |  | Ratio EC50 [6]: 15 to 30
COC(=O)N[C@H](C(=O)N1CCC[C@H]1c1nc2cc([C@H]3CC[C@H](c4cc5nc([C@@H]6CCCN6C(=O)[C@@H](NC(=O)OC)C(C)C)[nH]c5cc4F)N3c3cc(F)c(N4CCCCC4)c(F)c3)c(F)cc2[nH]1)C(C)C | 3 to 4 | 7 |  | 3 | 153 | 2 | 7 | 4 | 4 | 96 | 27 | 7 | 6 | 12 | 8 |  | 190 | 4410 | 2880 | 370 | AUC [18]: 48200 ng·h/mL; AUC [19]: 17200 ng·h/mL; half-life [21]: 6.1 h; half-life [23]: 5.5 h; half-life [26]: 5.8 h; half-life [27]: 5.5 h; Cmax [28]: 1380 ng/mL; Cmax [29]: 3390 ng/mL
COC(=O)N[C@H](C(=O)N1CCC[C@H]1c1nc2ccc([C@H]3CC[C@H](c4ccc5nc([C@@H]6CCCN6C(=O)[C@@H](NC(=O)OC)C(C)C)[nH]c5c4)N3c3ccc(C(C)(C)C)cc3)cc2[nH]1)C(C)C | 2 to 11 | 6 | 10 to 20 | 14 | 272 | 4 | 14 | 10 | 8 | 155 | 239 |  | 14 | 155 | 27 | 8 | 60 |  | 560 |  | clearance [30]: 17.7 mL/min/kg; bioavailability [31]: 11%; half-life [32]: 4.1 h; bioavailability [33]: 20%; clearance [34]: 6.33 mL/min/kg; half-life [35]: 2.6 h; half-life [36]: 2 h; AUC [37]: 1390 ng·h/mL; Cmax [38]: 270 ng/mL
COC(=O)N[C@H](C(=O)N1CCC[C@H]1C(=O)Nc1ccc([C@H]2CC[C@@H](c3ccc(NC(=O)[C@@H]4CCCN4C(=O)[C@@H](NC(=O)OC)C(C)C)cc3)N2c2ccc(C(C)(C)C)cc2)cc1)C(C)C |  |  |  |  |  |  |  |  |  |  |  |  |  |  |  |  |  | 11000 |  | 570 | half-life [39]: 11 h; bioavailability [40]: 42%; clearance [41]: 1.83 mL/min/kg
COC(=O)N[C@H](C(=O)N1CCC[C@H]1c1nc2cc([C@H]3CC[C@H](c4ccc5[nH]c([C@@H]6CCCN6C(=O)[C@@H](NC(=O)OC)C(C)C)nc5c4)N3c3cc(F)c(N4CCCCC4)c(F)c3)ccc2[nH]1)C(C)C | 3 to 6 | 5 |  | 8 | 261 | 3 | 6 | 7 | 6 | 154 | 163 | 7 | 9 | 13 | 25 | 10 | 50 | 1800 | 30 | 220 | AUC [19]: 1230 ng·h/mL; half-life [42]: 3.2 h; half-life [21]: 3.9 h; AUC [43]: 9250 ng·h/mL; half-life [23]: 2.8 h; Cmax [44]: 930 ng/mL; Cmax [28]: 200 ng/mL
